From article PMC6801739, “Antitumor Activity of a Novel Tyrosine Kinase Inhibitor AIU2001 Due to Abrogation of the DNA Damage Repair in Non-Small Cell Lung Cancer Cells” (International Journal of Molecular Sciences, 2019)

Legend:
Format in all cases: cell-based, human
BEAS2B cells = assay: MTT cell viability assay; details: BEAS2B normal bronchial epithelial cells, five days
Description: (§1) Cell viability was assessed using the MTT colorimetric assay. Cells (1 × 10^3 cells/well) were seeded into 96-well plates and treated with the various concentrations of each compound or combination of two compounds. After five days of treatment, 10 μL MTT (0.5 mg/mL) was added, and further incubated for 3 h. After removal of the supernatant, the resultant pellet was dissolved in DMSO. The absorbance of the resultant formazan was measured at 540 nm using a plate reader (Multiskan EX; ThermoLabsystems, Waltham, MA, USA).

H460 cells = assay: MTT cell viability assay; details: five days
Description: as §1

CCD18-Lu cells = assay: MTT cell viability assay; details: CCD18-Lu lung fibroblast cells, five days
Description: as §1

H1299 cells [1] = assay: qPCR of DNA damage repair genes and STAT5 mRNA; details: 24 h
Text: (§2) RNA was extracted using TRIzol® RNA isolation reagent (ThermoFisher Scientific). RNA was reverse-transcribed into cDNA using the M-MLV reverse transcriptase (Enzynomics, Daejeon, Korea) and RNase inhibitor (Promega, Madison, WI, USA). The sequence of the primers targeting human BRCA1, BRCA2, RAD51, BARD1, XRCC6, and XRCC5 are as follows: BRCA1 sense 5′-[…]-3′, BRCA1 antisense 5′-[…]-3′, BRCA2 sense 5′-[…]-3′, BRCA2 antisense 5′-[…]-3′, RAD51 sense 5′-[…]-3′, RAD51 antisense 5′-[…]-3′, BARD1 sense 5′-[…]-3′, BARD1 antisense 5′-[…]-3′, XRCC6 sense 5′-[…]-3′, XRCC6 antisense 5′-[…]-3′, XRCC5 sense 5′-[…]-3′,and XRCC5 antisense 5′-[…]-3′. β-actin was used as a housekeeping gene for normalization. The cDNA was quantified using real-time PCR with SYBR Green/fluorescein qPCR master mix (ThermoScientific, Carlsbad, CA, USA) on a Lightcycler 96 system (Roche Diagnostics, Mannheim, Germany) according to the manufacturer’s protocol.

A549 cells [2] = assay: qPCR of DNA damage repair genes and STAT5 mRNA; details: 24 h
Text: as §2

H1299 cells [3] = assay: MTT cell viability assay, single drugs and combinations, CI scores
Description: as §1
(§3) CI scores were calculated using the CompuSyn software by Chou (CompuSyn Inc., Paramus, NJ) based on cell viability after treatment with single- and paired-drug concentrations. The CI equation for two drugs was used: CI=(D)A/(Dx)A+(D)B/(Dx)B where (Dx)A is the concentration of drug A alone that inhibits x%, (Dx)B is the concentration of drug B alone that inhibits x%, (D)A or (D)B is the portion of drug A or drug B in the combination (D)A + (D)B that inhibits x%.

A549 cells [4] = assay: as above
Description: as §1, §3

**Q.** Which results are given for `CC(C)(C)c1cc(NC(=O)Nc2ccc(-c3cn4c(n3)sc3cc(OCCN5CCOCC5)ccc34)cc2)no1` [quizartinib, reference compound]?
**A.** Growth inhibition (BEAS2B cells): slightly inhibited the proliferation; Growth inhibition (H460 cells): slightly inhibited the proliferation; Growth inhibition (CCD18-Lu cells): slightly inhibited the proliferation; Expression level of STAT5 mRNA (H1299 cells [1]): decreased the expression; mRNA levels of HR (BRCA1, BRCA2, BARD1, RAD51) and NHEJ (XRCC5, XRCC6) genes (H1299 cells [1]): decreased the expression; Expression level of STAT5 mRNA (A549 cells [2]): decreased the expression; mRNA levels of HR (BRCA1, BRCA2, BARD1, RAD51) and NHEJ (XRCC5, XRCC6) genes (A549 cells [2]): decreased the expression; viability at 0.16 µM (H1299 cells [3]; Homo sapiens, NCI-H1299, 120 h, Olaparib 0, Quizartinib 0.16 μM, 5 days, panel B, read-out: Relative viability): 104%; viability at 0.32 µM (H1299 cells [3]; Homo sapiens, NCI-H1299, 120 h, Olaparib 0, Quizartinib 0.32 μM, 5 days, panel B, read-out: Relative viability): 105%; viability at 0.63 µM (H1299 cells [3]; Homo sapiens, NCI-H1299, 120 h, Olaparib 0, Quizartinib 0.63 μM, 5 days, panel B, read-out: Relative viability): 106%; viability at 1.25 µM (H1299 cells [3]; Homo sapiens, NCI-H1299, 120 h, Olaparib 0, Quizartinib 1.25 μM, 5 days, panel B, read-out: Relative viability): 92.7%; viability at 2.5 µM (H1299 cells [3]; Homo sapiens, NCI-H1299, 120 h, Olaparib 0, Quizartinib 2.50 μM, 5 days, panel B, read-out: Relative viability): 87.3%; viability at 5 µM (H1299 cells [3]; Homo sapiens, NCI-H1299, 120 h, Olaparib 0, Quizartinib 5.00 μM, 5 days, panel B, read-out: Relative viability): 65.8%; viability at 10 µM (H1299 cells [3]; Homo sapiens, NCI-H1299, 120 h, Olaparib 0, Quizartinib 10.00 μM, 5 days, panel B, read-out: Relative viability): 32.1%; Growth inhibition (H1299 cells [3]; MTT, five days): slightly inhibited the proliferation; viability at 0.16 µM (A549 cells [4]; Homo sapiens, 120 h, Olaparib 0, Quizartinib 0.16 μM, 5 days, panel B, read-out: Relative viability): 93.1%; viability at 0.32 µM (A549 cells [4]; Homo sapiens, 120 h, Olaparib 0, Quizartinib 0.32 μM, 5 days, panel B, read-out: Relative viability): 91.8%; viability at 0.63 µM (A549 cells [4]; Homo sapiens, 120 h, Olaparib 0, Quizartinib 0.63 μM, 5 days, panel B, read-out: Relative viability): 93.9%; viability at 1.25 µM (A549 cells [4]; Homo sapiens, 120 h, Olaparib 0, Quizartinib 1.25 μM, 5 days, panel B, read-out: Relative viability): 92.6%; viability at 2.5 µM (A549 cells [4]; Homo sapiens, 120 h, Olaparib 0, Quizartinib 2.50 μM, 5 days, panel B, read-out: Relative viability): 87.5%; viability at 5 µM (A549 cells [4]; Homo sapiens, 120 h, Olaparib 0, Quizartinib 5.00 μM, 5 days, panel B, read-out: Relative viability): 77.8%; viability at 10 µM (A549 cells [4]; Homo sapiens, 120 h, Olaparib 0, Quizartinib 10.00 μM, 5 days, panel B, read-out: Relative viability): 64.6%; Growth inhibition (A549 cells [4]; MTT, five days): slightly inhibited the proliferation
